{
  "source": "patent US8937038B2",
  "about": "“Composition containing peptide ligand that bonds with CXCR2 for treating infective and inflammatory diseases” (priority 2010, dated 2015)",
  "molecules": {"B1": {"name": "IFN-γ: type 1 cytokine (R&D) added to mouse splenocytes at 1 to 1,000 IU/ml (protein, UniProt P01580 23-155, looked up)", "Interferon gamma": "HGTVIESLESLNNYFNSSGIDVEEKSLFLDIWRNWQKDGDMKILQSQIISFYLRLFEVLKDNQAISNNISVIESHLITTFFSNSKAKKDAFMSIAKFEVNNPQVQRQAFNELIRVVHQLLPESSLRKRKRSRC"}, "B2": {"name": "KC: counterpart of mouse IL-8; mouse chemokine activating CXCR2 (protein, UniProt P12850 25-96, looked up)", "Growth-regulated alpha protein": "APIANELRCQCLQTMAGIHLKNIQSLKVLPSGPHCTQTEVIATLKNGREACLDPEAPLVQKIVQKMLKGVPK"}},
  "key": {"mouse neutrophils": {"system": "mouse neutrophils", "assay": "H2O2 production in mouse neutrophils", "format": "cell-based", "details": "neutrophils pretreated with SB225002 30 minutes, then Ac-PGP 20 μM; FIG. 13", "procedure": "Mouse neutrophils were separated from peripheral blood using a Histopaque-1077 solution (Sigma) (Bae Y S et al. 2001 Blood. 97: 2854-2862). The neutrophils separated from normal mice were stimulated with various concentrations of Ac-PGP for 10 minutes in the presence of cytochalasin B (5 μM). To identify the role of mCXCR2, the neutrophils were pre-incubated in various concentrations of SB225002 or a vehicle (DMSO) for 30 minutes in a stationary environment, and Ac-PGP (20 μM) was added, and incubated for 10 minutes. H2O2 in a supernatant was measured using a H2O2 measurement kit (Molecular probe).\nA death rate by CLP is correlated with the number of bacterial colonies in a peritoneal fluid. Therefore, an effect of the Ac-PGP on removal of bacteria in a peritoneal fluid was examined. […] In vitro disinfection activity of the Ac-PGP was examined using neutrophils derived from a mouse. The mouse neutrophils were kept for an hour to phagocytize E. coli, and then stimulated with various concentrations of Ac-PGP (0.1 to 100 nM) for 20 minutes. […] A reactive oxygen species such as hydrogen peroxide was known as an important molecule participating in the disinfection activity. Therefore, an effect of Ac-PGP on production of hydrogen peroxide in the mouse neutrophils was examined. […]"}, "human neutrophils": {"system": "human neutrophils", "assay": "Cytokine production by LPS-stimulated human neutrophils", "format": "cell-based", "details": "human neutrophils stimulated with LPS", "text": "(§1) All kinds of protocols used in human beings were approved by the Institutional Review Board (IRB) at Dong-A University Hospital, and prior consents were obtained from all blood donors. Peripheral blood was collected from healthy donors, and human peripheral monocytes were separated using a Histopaque-1077 gradient. Neutrophils were separated through methods such as dextran precipitation of red blood cell, hypotonic lysis, and usage of lymphocyte isolation medium gradient, as known in the related art (Bae, Y. S. et al. Blood 97, 2854-2862(2001)). The separated human leukocytes were used immediately.\n(§2) Next, an effect of the Ac-PGP on production of cytokines by human neutrophils and PBMCs was examined. […] A human CXCR2 chemokine agonist CXCL8 had few effects on production of TNF-α or IFN-γ stimulated with LPS (FIG. 28 to FIG. 31). Therefore, the Ac-PGP could improve both antiseptic activities in leukocytes derived from human beings and mice."}, "PBMCs": {"system": "PBMCs", "assay": "Cytokine production by LPS-stimulated human PBMCs", "format": "cell-based", "details": "human PBMCs stimulated with LPS", "text": "as §1, §2"}, "[1]": {"system": "cecal ligation and puncture (CLP)-septic mice", "details": "Kuliopulos et al.; cited from earlier work"}, "mouse splenocytes": {"system": "mouse splenocytes", "assay": "Cytokine release from LPS-stimulated mouse splenocytes (ELISA)", "format": "cell-based", "details": "LPS 100 ng/ml", "procedure": "Mouse splenocytes were positioned on an RPMI 1640 medium including 5% FBS in a 96-well plate, and maintained at 37° C. in a 5% CO2 incubator. Thereafter, the splenocytes were stationarily incubated with LPS (100 ng/ml) for 24 hours in the presence or absence of Ac-PGP. After 30 minutes, LPS was added to the cells and collected a cell-free supernatant, and then the supernatant was centrifuged, and TNF-α, IL-6 and IFN-γ were measured using ELISA (BD Biosciences Pharmingen). In regards to the effect of IFN-γ on production of pro-inflammatory cytokines induced by LPS, 5×10^5 cells/ml of the mouse splenocytes were stimulated with 100 ng/ml of LPS in the presence or absence IFN-γ (R&D) (at various concentrations of 1, 10, 100 and 1,000 IU/ml). Amounts of TNF-α and IL-6 were measured 20 hours after stationary incubation using ELISA (BD Biosciences Pharmingen).\nAn effect of the Ac-PGP on a pro-inflammatory cytokine in a peritoneal fluid by CLP was determined from 4 to 72 hours after the CLP. The CLP induced a remarkable increase in levels of pro-inflammatory cytokines (TNF-α, IL-1β and IL-6) within 24 hours (FIGS. 14 to 16). Injection of the Ac-PGP in a sepsis model by the CLP induced a remarkable change in levels of the cytokines. […] To evaluate an effect of the Ac-PGP on production of the pro-inflammatory cytokines by the LPS, in vitro production of TNF-α and IL-6 by the mouse splenocytes was evaluated. Direct release of the TNF-α and IL-6 from the mouse splenocytes by the LPS was suppressed by in vitro treatment with the Ac-PGP (FIGS. 17 and 18).\nSince it was confirmed that the administration of the Ac-PGP improved in vivo production of IFN-γ, a direct effect of the Ac-PGP on production of IFN-γ by splenocytes was examined. […] Also, an effect of IFN-γ on production of the pro-inflammatory cytokines was also examined."}},
  "note": "Where no end group is shown, it is not given here. The star is where a group is joined. Palmitoyl = CCCCCCCCCCCCCCCC(=O)*",
  "data": [
    {"molecule": "O=C(Nc1ccc([N+](=O)[O-])cc1O)Nc1ccccc1Br", "note": "[SB225002, reference compound]", "values": [
      {"measurement": "production of hydrogen peroxide by the Ac-PGP", "setting": "mouse neutrophils", "result": "completely suppressed"}
    ]},
    {"molecule": "CXCL8: human CXCR2 chemokine agonist", "values": [
      {"measurement": "production of TNF-α", "setting": "human neutrophils; FIG. 28", "result": "few effects"},
      {"measurement": "production of IFN-γ", "setting": "human neutrophils; FIG. 30", "result": "few effects"},
      {"measurement": "production of TNF-α", "setting": "PBMCs; FIG. 29", "result": "few effects"},
      {"measurement": "production of IFN-γ", "setting": "PBMCs; FIG. 31", "result": "few effects"}
    ]},
    {"molecule": "pal-RTLFKAHMGQKHR (Palmitoyl-RTLFKAHMGQKHR) [x1/2pal-3]", "values": [
      {"measurement": "survival rate", "setting": "[1]", "result": "remarkable increase in survival rate"}
    ]},
    {"molecule": "B1", "values": [
      {"measurement": "production of TNF-α by LPS", "setting": "mouse splenocytes; 5×10^5 cells/ml, IFN-γ 1, 10, 100 and 1,000 IU/ml, 20 hours, FIG. 25", "result": "relieved production"},
      {"measurement": "production of IL-6 by LPS", "setting": "mouse splenocytes; 5×10^5 cells/ml, IFN-γ 1, 10, 100 and 1,000 IU/ml, 20 hours, FIG. 26", "result": "relieved production"}
    ]},
    {"molecule": "B2", "values": [
      {"measurement": "release of TNF-α by LPS", "setting": "mouse splenocytes; 24 hours, FIG. 17", "result": "could not suppress"},
      {"measurement": "release of IL-6 by LPS", "setting": "mouse splenocytes; 24 hours, FIG. 18", "result": "could not suppress"}
    ]}
  ]
}
